According to ChEMBL document CHEMBL5126621, “Modifying a Hydroxyl Patch in Glucagon-like Peptide 1 Produces Biased Agonists with Unique Signaling Profiles” (J Med Chem, 2022):
The source made the active and inactive calls. The rule behind the calls is not given here. Where a SMILES comes first, the peptide text is derived from it. [ ]: non-standard residue; d: D form. Abu = CC[C@H](N)C(=O)O

Key:
[1] = target: T1, Glucagon-like peptide 1 receptor (Homo sapiens, UniProt P43220); test: Agonist activity at human GLP-1R expressed in CHO cells coexpressing GFP assessed as increase in glucagon-like peptide 1-induced receptor internalization at 10 uM by confocal fluorescence microscopy; type: functional, cell-based; settings: filed as agonist, time 30.0 min
T1 sequence (P43220 whole entry): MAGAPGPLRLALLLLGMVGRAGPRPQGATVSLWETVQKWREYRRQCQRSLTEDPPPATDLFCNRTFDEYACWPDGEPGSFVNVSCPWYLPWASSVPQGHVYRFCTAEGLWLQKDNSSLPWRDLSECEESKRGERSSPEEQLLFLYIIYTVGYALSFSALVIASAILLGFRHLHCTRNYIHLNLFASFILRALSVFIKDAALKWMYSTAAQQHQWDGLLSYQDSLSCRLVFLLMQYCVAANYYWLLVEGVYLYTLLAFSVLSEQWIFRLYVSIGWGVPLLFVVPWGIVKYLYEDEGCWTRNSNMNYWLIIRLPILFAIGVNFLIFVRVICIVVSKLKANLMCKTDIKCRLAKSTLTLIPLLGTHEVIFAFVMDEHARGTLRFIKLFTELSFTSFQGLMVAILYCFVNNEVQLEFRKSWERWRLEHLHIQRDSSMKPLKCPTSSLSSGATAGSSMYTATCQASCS

[2] = target: T1, Glucagon-like peptide 1 receptor; test: Agonist activity at human GLP-1R expressed in CHO cells coexpressing GFP assessed as receptor internalization at 10 uM by confocal fluorescence microscopy; type: functional, cell-based; settings: filed as agonist
[3] = target: T1, Glucagon-like peptide 1 receptor
Description: Agonist activity at human GLP-1R expressed in CHO cells coexpressing beta-arrestin-2 assessed as increase in beta arrestin-2 recruitment incubated for 1 hr by chemiluminescence based pathHunter assay

[4] = target: T1, Glucagon-like peptide 1 receptor; remark: listed apart in the source
Description: Agonist activity at human GLP-1R expressed in CHO cells coexpressing beta-arrestin-2 assessed as reduction in cAMP accumulation incubated for 2 hrs under dark condition by LANCE cAMP assay

[5] = target: T1, Glucagon-like peptide 1 receptor; remark: listed apart in the source
[6] = target: T1, Glucagon-like peptide 1 receptor; remark: listed apart in the source
Description: Agonist activity at human GLP-1R expressed in CHO cells coexpressing beta-arrestin-2 assessed as stimulation intracellular calcium mobilization measured after 180 secs by Fluo-3-AM dye based fluorescence assay

[7] = target: T1, Glucagon-like peptide 1 receptor; remark: listed apart in the source
Description: Agonist activity at human GLP-1R assessed as increase in ERK1/2 phosphorylation at Thr202/Tyr204 residues incubated for 20 mins by AlphaLISA assay

[8] = target: T1, Glucagon-like peptide 1 receptor; test: Binding affinity to human GLP-1R expressed in CHO cells coexpressing beta-arrestin-2 assessed as fold increase in affinity incubated for 1 hr in presence of N-(tert-butyl)-6,7-dichloro-3-(methylsulfonyl)quinoxalin-2-amine by time-resolved fluorescence assay; type: cell-based
Mus musculus [9] = test: Reduction in blood glucose level in intraperitoneal glucose injected C57BL/6J mouse at 0.1 mg/kg, ip administered as single dose measured 20 to 60 mins by glucose tolerance test; type: functional, organism-based; settings: time 20-60 min
[10] = Drug uptake in human GLP-1R expressed in CHO cells coexpressing GFP assessed as drug internalization at 100 nM incubated for 30 mins by inverted microscopic analysis; type: ADME, cell-based, Cricetulus griseus; settings: chinese hamster, 0.5 h, 0.1 µM
[11] = target: T1, Glucagon-like peptide 1 receptor; test: Receptor residence time at human GLP-1R expressed in CHO cells coexpressing beta-arrestin-2 assessed as inhibition of glucagon-like peptide 1-induced calcium mobilization by measuring half life at 100 uM preincubated for 30 mins followed by glucagon-like peptide 1 addition measured upto 4 hrs by calcium mobilization assay; type: functional, cell-based; settings: filed as agonist
Mus musculus [12] = test: Reduction in blood glucose level in intraperitoneal glucose injected C57BL/6J mouse by measuring glucose area under curve at 0.1 mg/kg, ip administered as single dose measured in 90 mins by glucose tolerance test; type: functional, organism-based
INS1 = test: Induction of glucose-stimulated insulin secretion in rat INS1 cells measured after 1 to 16 hrs by HTRF assay; type: functional, cell-based; settings: dose 10-1e+07 pM, time lower 1.0 hrs, time upper […], DDE = dose-dependent effect
Mus musculus [13] = test: Induction of plasma insulin level in C57BL/6J mouse assessed as increase in insulin level at 0.1 mg/kg, ip administered as single dose measured at 10 mins in presence of glucose; type: functional, organism-based

With `CC(C)(C)Nc1nc2cc(Cl)c(Cl)cc2nc1S(C)(=O)=O` the Activity [1] was “Active” and the Activity [2] was “Active”.
For `CC[C@H](NC(=O)[C@H](CC)NC(=O)[C@@H](NC(=O)[C@H](CC(=O)O)NC(=O)[C@H](CC)NC(=O)[C@@H](NC(=O)[C@H](Cc1ccccc1)NC(=O)[C@@H](NC(=O)CNC(=O)[C@H](CCC(=O)O)NC(=O)[C@H](C)NC(=O)[C@@H](N)Cc1c[nH]cn1)C(C)C)[C@@H](C)O)C(C)C)C(=O)N[C@@H](Cc1ccc(O)cc1)C(=O)N[C@@H](CC(C)C)C(=O)N[C@@H](CCC(=O)O)C(=O)NCC(=O)N[C@@H](CCC(N)=O)C(=O)N[C@@H](C)C(=O)N[C@@H](C)C(=O)N[C@@H](CCCCN)C(=O)N[C@@H](CCC(=O)O)C(=O)N[C@@H](Cc1ccccc1)C(=O)N[C@H](C(=O)N[C@@H](C)C(=O)N[C@@H](Cc1c[nH]c2ccccc12)C(=O)N[C@@H](CC(C)C)C(=O)N[C@H](C(=O)N[C@@H](CCCCN)C(=O)NCC(=O)N[C@@H](CCCNC(=N)N)C(N)=O)C(C)C)[C@@H](C)CC` (H-HAEGVFT[Abu]DV[Abu][Abu]YLEGQAAKEFIAWLVKGR-NH2), the EC50 [3] was > 10000 nM, the EC50 [4] was 5.01 nM and the IC50 [5] was 398 nM. The EC50 [6] was > 100000 nM and the EC50 [7] was > 10000 nM.
With H-HAEGAFTADVAAYLEGQAAKEFIAWLVKGR-NH2 the fold change (FC) [8] was 10, the EC50 [3] was > 10000 nM and the EC50 [4] was 0.0398 nM. The Activity (Mus musculus [9]) was “Active”, the IC50 [5] was 251 nM and the EC50 [6] was > 100000 nM. For the same compound, the Drug uptake [10] was “Active”, the T1/2 [11] was 4 h and the Activity (Mus musculus [12]) was “Active”. The Activity (INS1) was “Dde”, the EC50 [7] was > 100000 nM and the Activity (Mus musculus [13]) was “Active”.
For `CC[C@H](C)[C@H](NC(=O)[C@H](Cc1ccccc1)NC(=O)[C@H](CCC(=O)O)NC(=O)[C@H](CCCCN)NC(=O)[C@H](C)NC(=O)[C@H](C)NC(=O)[C@H](CCC(N)=O)NC(=O)CNC(=O)[C@H](CCC(=O)O)NC(=O)[C@H](CC(C)C)NC(=O)[C@H](Cc1ccc(O)cc1)NC(=O)[C@H](CO)NC(=O)[C@H](CO)NC(=O)[C@@H](NC(=O)[C@H](CC(=O)O)NC(=O)[C@H](CO)NC(=O)[C@@H](NC(=O)[C@H](Cc1ccccc1)NC(=O)[C@@H](NC(=O)CNC(=O)[C@H](CCC(=O)O)NC(=O)[C@H](C)NC(=O)[C@@H](N)Cc1c[nH]cn1)[C@@H](C)O)[C@@H](C)O)C(C)C)C(=O)N[C@@H](C)C(=O)N[C@@H](Cc1c[nH]c2ccccc12)C(=O)N[C@@H](CC(C)C)C(=O)N[C@H](C(=O)N[C@@H](CCCCN)C(=O)NCC(=O)N[C@@H](CCCNC(=N)N)C(N)=O)C(C)C`, the Drug uptake [10] was “Active”.
In the case of `CC[S+]([O-])c1nc(-c2cccc(OCc3ccccc3)c2)cc(C(F)(F)F)n1` (stereo unspecified), the Activity [1] is reported as “Active” and the Activity [2] is reported as “Active”.
In the case of H-HAEGTFTADVAAYLEGQAAKEFIAWLVKGR-NH2, the EC50 [3] is reported as 158 nM, the EC50 [4] is reported as 0.00501 nM and the Activity (Mus musculus [9]) is reported as “Active”. The IC50 [5] was 251 nM, the EC50 [6] was 794 nM and the Drug uptake [10] was “Active”. For the same compound, the Activity (Mus musculus [12]) was “Active”, the EC50 [7] was > 10000 nM and the Activity (Mus musculus [13]) was “Active”.
